Assay results published in patent US8669284B2, “Pharmaceutical composition comprising a bi-cyclic compound and method for stabilizing the bi-cyclic compound” (Sucampo AG, priority 2006, dated 2014).

Tests used:
Type in all cases: physicochemical
[1] = Stability of compound 1 in vehicle solution, 55° C. storage, HPLC; settings: for Concentration of compound 1 after 55° C. storage, day 10: 55° C. for 10 days; for Concentration of compound 1 after 55° C. storage, day 10 / Concentration of compound 1, day 0: percentage based on the theoretical amount; for Concentration of compound 1, day 0: before storage
Description: Compound 1 was dissolved in a vehicle shown in table 1 below to give 240 μg/g solution (sample). The precise concentration of Compound 1 in the solution was determined by means of HPLC (day 0). Then, the solution was put in a hard grass container and kept at 55° C. for 10 days, and then the precise concentration of the compound 1 in the solution was determined by means of HPLC (day 10).
The determination of the concentration of the compound in the sample was carried out as follows. About 0.2 g of the sample was mixed with exactly 2 ml of internal standard solution and then with a dissolving agent shown in Table 1 to give 5 mL of sample solution. About 12 mg of the reference standard compound 1 was weighted precisely and added with acetonitrile to give exactly 100 ml solution. Exactly 0.8 ml of the solution was obtained and added with exactly 4 ml of the internal standard solution, and then added with the dissolving agent to give 10 ml of standard solution.
The fluorescent labeling agent was added to the respective solution, stirred and stood at room temperature. Then, the respective solution in an amount that theoretically gives 3.6 ng of compound 1 was loaded on the column and analyzed under the condition as follows:
Column: 5 mm×25 cm stainless steel column packed with octadecylsilane treated silica gel for HPLC (5 μm)
Mobile phase: mixture of acetonitrile HPLC grade: methanol HPLC grade: ammonium acetate (0.05 mol/L)

[2] = Stability of compound 1 in medium chain fatty acid triglyceride kept with gelatin/glycerin piece at 40° C.; settings: 60 μg/g in medium chain fatty acid triglyceride with gelatin piece (gelatin 100, glycerin 35 parts by weight), sealed container, 21 days, on the basis of theoretical amount
Description: One hundred (100) parts by weight of gelatin (Type A, high bloom, SKW Biosystems #195F) and 35 parts by weight of glycerin, a plasticizer, were mixed in water and dried to give gelatin piece whose water content was about 4%. Compound 1 was dissolved in medium chain fatty acid triglyceride (USP/NF grade) to give a liquid mixture comprising 60 μg/g of the compound. 0.5 g of the liquid mixture and 0.5 g of gelatin piece were put together in a sealed container and kept at 40° C. for 21 days. The concentration of compound 1 contained in the liquid mixture was determined in the same manner as Example 1. As a result, the amount of the compound 1 at day 21 was 97.0% on the basis of a theoretical amount (60 μg/g).

[3] = Stability of soft gelatin capsule of compound 1 at 40° C.; settings: fill 240 μg/g in medium chain fatty acid triglyceride; for conc. (% of Initial) 40° C. 1 mo: 1 month; for conc. (% of Initial) 40° C. 2 mo: 2 months
Description: Glycerin in an amount shown in Table 3 was added in an appropriate amount of water, stirred and heated. Then, gelatin 100 parts by weight was added thereto to give gelatin solution. Compound 1 was dissolved in medium chain fatty acid triglyceride (USP/NF grade) to give a fill solution containing 240 μg/g of compound 1. The gelatin solution and the fill solution were loaded on capsule forming and filling machine to give capsule containing the fill solution, and dried to give soft gelatin capsule.
The capsule was put in a sealed container and kept at 40° C. for 2 months. The concentration of compound 1 in the fill solution contained in the capsule was determined after 1 and 2 months storage in the same manner as EXAMPLE 1.

[4] = vehicle glycerin, 240 μg/g solution
[5] = vehicle isopropyl palmitate, 240 μg/g solution
[6] = vehicle linolenic acid (comparative), 240 μg/g
[7] = vehicle oleic acid (comparative), 240 μg/g
[8] = vehicle polyethylene glycol 400, 240 μg/g solution
[9] = vehicle propylene glycol ester of fatty acid, 240 μg/g solution
[10] = vehicle propylene glycol, 240 μg/g solution
[11] = soft gelatin capsule shell gelatin 100, glycerin 45 parts by weight
[12] = soft gelatin capsule shell gelatin 100, glycerin 55 parts by weight

CCCCC(F)(F)[C@@]1(O)CC[C@H]2[C@@H](CC(=O)[C@@H]2CCCCCCC(=O)O)O1 [Compound 1, 7-[(2R,4aR,5R,7aR)-2-(1,1-difluoropentyl)-2-hydroxy-6-oxooctahydrocyclopenta[b]pyran-5-yl]heptanoic acid]
stability of compound 1 ([1]; admixing with a polyol and/or a fatty acid ester other than glyceride, versus comparative vehicles): significantly improved | Concentration of compound 1 after 55° C. storage, day 10 [1, 4]: 78.0% | Concentration of compound 1, day 0 [1, 4]: 92.0% | Concentration of compound 1 after 55° C. storage, day 10 ([1]; vehicle hydrogenated maltose starch syrup (comparative), 240 μg/g): 24.4% | Concentration of compound 1 after 55° C. storage, day 10 [1, 5]: 99.1% | Concentration of compound 1, day 0 [1, 5]: 98.9% | Concentration of compound 1 after 55° C. storage, day 10 [1, 6]: 33.1% | Concentration of compound 1, day 0 [1, 6]: 74.8% | Concentration of compound 1 after 55° C. storage, day 10 [1, 7]: 57.3% | Concentration of compound 1, day 0 [1, 7]: 101.7% | Concentration of compound 1 after 55° C. storage, day 10 [1, 8]: 90.1% | Concentration of compound 1, day 0 [1, 8]: 98.2% | Concentration of compound 1 after 55° C. storage, day 10 [1, 9]: 89.0% | Concentration of compound 1, day 0 [1, 9]: 99.9% | Concentration of compound 1 after 55° C. storage, day 10 [1, 10]: 88.6% | Concentration of compound 1, day 0 [1, 10]: 97.8% | Concentration of compound 1 after 55° C. storage, day 10 ([1]; vehicle sugar alcohol solution derived from corn starch (comparative), 240 μg/g): 26.3% | amount of the compound 1 at day 21 [2]: 97.0% | conc. (% of Initial) 40° C. 1 mo [3, 11]: 100.0% | conc. (% of Initial) 40° C. 2 mo [3, 11]: 98.7% | conc. (% of Initial) 40° C. 1 mo [3, 12]: 97.7% | conc. (% of Initial) 40° C. 2 mo [3, 12]: 94.0%
